Activity calls are given as the source filed them.
Tests used:
[1] = system: BGC-823; assay: Cytotoxicity against human BGC823 cells at 10 uM after 96 hrs by MTT assay; format: functional, cell-based
[2] = system: HCT-8; assay: Cytotoxicity against human HCT8 cells at 10 uM after 96 hrs by MTT assay; format: functional, cell-based
[3] = system: A2780; assay: Cytotoxicity against human A2780 cells at 10 uM after 96 hrs by MTT assay; format: functional, cell-based
[4] = system: A549; assay: Cytotoxicity against human A549 cells at 10 uM after 96 hrs by MTT assay; format: functional, cell-based
[5] = system: Bel-7402; assay: Cytotoxicity against human Bel7402 cells at 10 uM after 96 hrs by MTT assay; format: functional, cell-based
[6] = system: Peritoneal macrophage cell; assay: Inhibition of LPS-induced TNFalpha secretion in C57BL/6J mouse peritoneal macrophages at 10 uM after 24 hrs; format: functional, cell-based
[7] = target: T1, Tyrosine-protein phosphatase non-receptor type 1 (Homo sapiens) (UniProt P18031); assay: Inhibition of human PTP1B at 10 uM
T1 sequence (whole entry): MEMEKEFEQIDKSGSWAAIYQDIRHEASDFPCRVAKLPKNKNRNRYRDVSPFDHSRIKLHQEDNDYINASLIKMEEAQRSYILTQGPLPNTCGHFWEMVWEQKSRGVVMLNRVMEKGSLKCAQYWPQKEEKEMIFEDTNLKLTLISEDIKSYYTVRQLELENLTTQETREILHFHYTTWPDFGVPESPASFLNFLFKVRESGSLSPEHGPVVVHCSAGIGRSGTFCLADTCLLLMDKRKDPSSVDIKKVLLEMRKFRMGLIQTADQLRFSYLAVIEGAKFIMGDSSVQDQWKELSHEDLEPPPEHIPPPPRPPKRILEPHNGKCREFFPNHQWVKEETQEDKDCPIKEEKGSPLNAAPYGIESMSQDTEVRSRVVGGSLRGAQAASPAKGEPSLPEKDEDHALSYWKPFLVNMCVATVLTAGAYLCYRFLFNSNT

CC(C)=CCC[C@@](O)(CO)[C@H]1CC[C@]2(C)[C@@H]1CC[C@@H]1[C@@]3(C)CC[C@H](O[C@@H]4OC[C@H](O)[C@H](O[C@@H]5OC[C@@H](O)[C@H](O)[C@H]5O)[C@H]4O[C@@H]4O[C@@H](C)[C@H](O)[C@@H](O)[C@H]4O)C(C)(C)[C@@H]3CC[C@]12C
inactive: Activity [1] | Activity [2] | Activity [3] | Activity [4] | Activity [5] | inhibition [6] | inhibition [7]

CC(C)=C[C@@H]1C[C@](O)([C@H]2CC[C@]3(C)[C@@H]2CC[C@@H]2[C@@]4(C)CC[C@H](O[C@@H]5O[C@H](CO)[C@@H](O)[C@H](O[C@@H]6OC[C@@H](O)[C@H](O)[C@H]6O)[C@H]5O)C(C)(C)[C@@H]4CC[C@]23C)C(=O)O1
inactive: Activity [1] | Activity [2] | Activity [3] | Activity [4] | Activity [5] | inhibition [6] | inhibition [7]

CC(C)=C[C@@H]1C[C@](O)([C@H]2CC[C@]3(C)[C@@H]2CC[C@@H]2[C@@]4(C)CC[C@H](O[C@@H]5OC[C@H](O)[C@H](O[C@@H]6OC[C@@H](O)[C@H](O)[C@H]6O)[C@H]5O[C@@H]5O[C@@H](C)[C@H](O)[C@@H](O)[C@H]5O)C(C)(C)[C@@H]4CC[C@]23C)C(=O)O1
inactive: Activity [1] | Activity [2] | Activity [3] | Activity [4] | Activity [5] | inhibition [6] | inhibition [7]

CC(C)=CCC[C@@](O)(CO)[C@H]1CC[C@]2(C)[C@@H]1CC[C@@H]1[C@@]3(C=O)CC[C@H](O[C@@H]4OC[C@H](O)[C@H](O[C@@H]5OC[C@@H](O)[C@H](O)[C@H]5O)[C@H]4O)C(C)(C)[C@@H]3CC[C@]12C
inactive: Activity [1] | Activity [2] | Activity [3] | Activity [4] | Activity [5] | inhibition [6] | inhibition [7]

CC(C)=CCC[C@@](O)(CO[C@@H]1O[C@H](CO[C@@H]2O[C@H](CO)[C@@H](O)[C@H](O)[C@H]2O)[C@@H](O)[C@H](O)[C@H]1O)[C@H]1CC[C@]2(C)[C@@H]1CC[C@@H]1[C@@]3(C)CC[C@H](O[C@@H]4O[C@H](CO)[C@@H](O)[C@H](O[C@@H]5OC[C@@H](O)[C@H](O)[C@H]5O)[C@H]4O[C@@H]4O[C@@H](C)[C@H](O)[C@@H](O)[C@H]4O)C(C)(C)[C@@H]3CC[C@]12C
inactive: Activity [1] | Activity [2] | Activity [3] | Activity [4] | Activity [5] | inhibition [6] | inhibition [7]

CC(C)=CCC[C@@](O)(CO[C@@H]1O[C@H](CO)[C@@H](O)[C@H](O)[C@H]1O)[C@H]1CC[C@]2(C)[C@@H]1CC[C@@H]1[C@@]3(C)CC[C@H](O[C@@H]4OC[C@H](O)[C@H](O[C@@H]5OC[C@@H](O)[C@H](O)[C@H]5O)[C@H]4O[C@@H]4O[C@@H](C)[C@H](O)[C@@H](O)[C@H]4O)C(C)(C)[C@@H]3CC[C@]12C
inactive: Activity [1] | Activity [2] | Activity [3] | Activity [4] | Activity [5] | inhibition [6] | inhibition [7]

CC(C)=CCC[C@@](O)(CO[C@@H]1O[C@H](CO)[C@@H](O)[C@H](O)[C@H]1O)[C@H]1CC[C@]2(C)[C@@H]1CC[C@@H]1[C@@]3(C=O)CC[C@H](O[C@@H]4O[C@H](CO)[C@@H](O)[C@H](O[C@@H]5OC[C@@H](O)[C@H](O)[C@H]5O)[C@H]4O[C@@H]4O[C@@H](C)[C@H](O)[C@@H](O)[C@H]4O)C(C)(C)[C@@H]3CC[C@]12C
inactive: Activity [1] | Activity [2] | Activity [3] | Activity [4] | Activity [5] | inhibition [6] | inhibition [7]

CC(C)=C[C@H]1C[C@](O)([C@H]2CC[C@]3(C)[C@@H]2CC[C@@H]2[C@@]4(C)CC[C@H](O[C@@H]5OC[C@H](O)[C@H](O[C@@H]6OC[C@@H](O)[C@H](O)[C@H]6O)[C@H]5O[C@@H]5O[C@@H](C)[C@H](O)[C@@H](O)[C@H]5O)C(C)(C)[C@@H]4CC[C@]23C)C(=O)O1
inactive: Activity [1] | Activity [2] | Activity [3] | Activity [4] | Activity [5] | inhibition [6] | inhibition [7]

CC(=O)OC[C@H]1O[C@@H](O[C@H]2CC[C@]3(C)[C@H]4CC[C@@H]5[C@@H]([C@](O)(CO)CCC=C(C)C)CC[C@@]5(C)[C@]4(C)CC[C@H]3C2(C)C)[C@H](O[C@@H]2O[C@@H](C)[C@H](O)[C@@H](O)[C@H]2O)[C@@H](O[C@@H]2OC[C@@H](O)[C@H](O)[C@H]2O)[C@@H]1O
inactive: Activity [1] | Activity [2] | Activity [3] | Activity [4] | Activity [5] | inhibition [6] | inhibition [7]

Source: ChEMBL document CHEMBL2069292, “Dammarane glycosides from the root of Machilus yaoshansis” (J Nat Prod, 2012)
